This is an account of results in patent US11208399B2, “NLRP3 inflammasome inhibitors” (Novartis AG, priority 2019, dated 2021).

This experiment relates to NF-kB-dependent TNF-α secretion. Kind of experiment: TNF-α secretion assay in THP-1 cells (counter screen, HTRF). The experiment is classed as cell-based. As to conditions: Homo sapiens, Pam3CSK4-stimulated, 3 hours. How it is done:
Monocytic THP-1 cells were maintained according to providers' instructions in RPMI media as described above. […] Experimental compounds were prepared and added as described above. TNF-α secretion was triggered by the addition of either 1 μg/mL LPS (Sigma, #L4391) or 100 ng/mL Pam3CSK4 (Invivogen, #tlrl-pms) depending on the experiment, and cells were incubated for 3 hours. 10 μL supernatant was removed, and TNF-α levels were monitored using an HTRF assay (CisBio, #62TNFPEC) according to manufacturers' instructions. Viability was monitored as described above.
IC50 values were calculated from the plot of percentage of inhibition versus the inhibitor concentration by a logistics fit according to: y=A2+(A1−A2)/(1+(x/IC50)^p) where y is the %-inhibition at the inhibitor concentration, x. A1 is the lowest inhibition value, i.e. 0%, and A2 the maximum inhibition value, i.e. 100%. The exponent, p, is the Hill coefficient. The curve fitting was conducted with an internally developed software suite. […]

One may read the IC50 as the concentration that inhibits the measured activity by half. Low readings indicate greater potency in that assay, high ones weaker potency in that assay.

Structures can show the parent of a compound that is named as a salt.

For the compound `Cc1cc(C(F)(F)F)cc(O)c1-c1ccc(N[C@H]2CC[C@H]3CC[C@@H]2N3C)nn1` (single isomer, unassigned) [Ex 85a], the IC50 was more than 100 µM. The compound `Cc1cc(C(F)(F)F)cc(O)c1-c1ccc(N[C@H]2CC[C@H]3CC[C@@H]2N3CCO)nn1` (single isomer, unassigned) [Ex 86a] showed an IC50 of more than 100 µM. Take `CCN1CCC[C@@H](Nc2ccc(-c3c(C)cc(C(F)(F)F)cc3O)nn2)C1` [Ex 1, (R)-2-(6-((1-Ethylpiperidin-3-yl)amino)pyridazin-3-yl)-3-methyl-5-(trifluoromethyl)phenol]: the IC50 was more than 100 µM. Under `Cc1cc(N[C@@H]2CCCN(C)C2)nnc1-c1ccc(C(F)(F)F)cc1O` [Ex 4, (R)-2-(4-Methyl-6-((1-methylpiperidin-3-yl)amino)pyridazin-3-yl)-5-(trifluoromethyl)phenol] stands more than 100 µM.

`Cc1cc(-c2c(C)cc(C(F)(F)F)cc2O)nnc1N[C@@H]1CCCN(C)C1` [Ex 5, (R)-3-Methyl-2-(5-methyl-6-((1-methylpiperidin-3-yl)amino)pyridazin-3-yl)-5-(trifluoromethyl)phenol] returned a 50% inhibitory concentration (IC50) of more than 33 µM. `Cc1cc(C(F)(F)F)cc(O)c1-c1ccc(N[C@@H]2CCCN(CCO)C2)nn1` [Ex 6, (R)-2-(6-((1-(2-Hydroxyethyl)piperidin-3-yl)amino)pyridazin-3-yl)-3-methyl-5-(trifluoromethyl)phenol] came in with an IC50 of more than 100 µM. Under `Cc1cc(C(F)(F)F)cc(O)c1-c1ccc(NC2CCCN(C(C)C)C2)nn1` (stereo not drawn) [Ex 7, 2-(6-((1-Isopropylpiperidin-3-yl)amino)pyridazin-3-yl)-3-methyl-5-(trifluoromethyl)phenol] stands more than 100 µM; under `Cc1cc(C(F)(F)F)cc(O)c1-c1ccc(NC2CNCC(F)(F)C2)nn1` (stereo not drawn) [Ex 9, 2-(6-((5,5-Difluoropiperidin-3-yl)amino)pyridazin-3-yl)-3-methyl-5-(trifluoromethyl)phenol], more than 100 µM. Under `CCN1CCC[C@@H](Nc2nnc(-c3c(C)cc(C(F)(F)F)cc3O)cc2C#N)C1` [Ex 11, (R)-3-((1-Ethylpiperidin-3-yl)amino)-6-(2-hydroxy-6-methyl-4-(trifluoromethyl)phenyl)pyridazine-4-carbonitrile] stands more than 100 µM; under `Cc1cc(C(F)(F)F)cc(O)c1-c1ccc(N[C@@H]2CCCN(C)C2)nn1` [Ex 12, (R)-3-Methyl-2-(6-((1-methylpiperidin-3-yl)amino)pyridazin-3-yl)-5-(trifluoromethyl)phenol], more than 100 µM. `Cc1cc(-c2c(C)cc(C(F)(F)F)cc2O)nnc1N[C@@H]1CCCN(CCO)C1` [Ex 13, (R)-2-(6-((1-(2-Hydroxyethyl)piperidin-3-yl)amino)-5-methylpyridazin-3-yl)-3-methyl-5-(trifluoromethyl)phenol]: the IC50 is more than 100 µM.

In turn, `Cc1cc(C(F)(F)F)cc(O)c1-c1ccc(N[C@H]2CCN(C)C2)nn1` [Ex 18, (S)-3-Methyl-2-(6-((1-methylpyrrolidin-3-yl)amino)pyridazin-3-yl)-5-(trifluoromethyl)phenol] registered an IC50 of more than 100 µM. Under `Oc1cc(Cl)cc(Cl)c1-c1ccc(NCC(F)(F)F)nn1` [Ex 27, 3,5-Dichloro-2-(6-((2,2,2-trifluoroethyl)amino)pyridazin-3-yl)phenol] stands more than 100 µM. Under `Cc1cc(C(F)(F)F)cc(O)c1-c1ccc(N[C@H]2CCCNC2)nn1` [Ex 33, (S)-3-Methyl-2-(6-(piperidin-3-ylamino)pyridazin-3-yl)-5-(trifluoromethyl)phenol] stands more than 100 µM. Under `Cc1cc(C(F)(F)F)cc(O)c1-c1ccc(N[C@H]2CCCN(C)C2)nn1` [Ex 36, (S)-3-Methyl-2-(6-((1-methylpiperidin-3-yl)amino)pyridazin-3-yl)-5-(trifluoromethyl)phenol] stands more than 100 µM; under `CN1CCC[C@@H](Nc2ccc(-c3c(O)cc(C(F)(F)F)cc3C(F)(F)F)nn2)C1` [Ex 39, (R)-2-(6-((1-Methylpiperidin-3-yl)amino)pyridazin-3-yl)-3,5-bis(trifluoromethyl)phenol], more than 100 µM. `Cc1cc(C(F)(F)F)cc(O)c1-c1nnc(N[C@@H]2CCCN(C)C2)c(C)c1C` [Ex 40, 2-(4,5-Dimethyl-6-(((R)-1-methylpiperidin-3-yl)amino)pyridazin-3-yl)-3-methyl-5-(trifluoromethyl)phenol TFA-salt] came in with an IC50 of more than 33 µM. Consider `Cc1cc(C(F)(F)F)cc(O)c1-c1ccc(O[C@@H]2CCCN(C)C2)nn1` [Ex 42, (R)-3-Methyl-2-(6-((1-methylpiperidin-3-yl)oxy)pyridazin-3-yl)-5-(trifluoromethyl)phenol], for which the IC50 was more than 100 µM. For the compound `Oc1cc(Cl)cc(Cl)c1-c1ccc(NC2CC2)nn1` [Ex 44, 3,5-Dichloro-2-(6-(cyclopropylamino)pyridazin-3-yl)phenol], the IC50 is more than 100 µM. Regarding `CN1CCC[C@@H](Nc2ccc(-c3c(O)cc(Cl)cc3Cl)nn2)C1` [Ex 45, (R)-3,5-Dichloro-2-(6-((1-methylpiperidin-3-yl)amino)pyridazin-3-yl)phenol TFA-salt], the IC50 was more than 100 µM. Under `Cc1cc(C(F)(F)F)cc(O)c1-c1ccc(Nc2cccnc2)nn1` [Ex 46, 3-Methyl-2-(6-(pyridin-3-ylamino)pyridazin-3-yl)-5-(trifluoromethyl)phenol] stands more than 100 µM; under `Cc1cc(C)c(-c2ccc(N[C@@H]3CCCN(C)C3)nn2)c(O)c1` [Ex 47, (R)-3,5-Dimethyl-2-(6-((1-methylpiperidin-3-yl)amino)pyridazin-3-yl)phenol], more than 100 µM.

With `Cc1c(N[C@@H]2CCCN(C)C2)nnc(-c2ccc(C(F)(F)F)cc2O)c1C` [Ex 48, (R)-2-(4,5-Dimethyl-6-((1-methylpiperidin-3-yl)amino)pyridazin-3-yl)-5-(trifluoromethyl)phenol], the concentration for half-maximal inhibition (IC50) is more than 100 µM. Turning to `CN1CCC[C@@H](Nc2ccc(-c3c(O)cc(C(F)(F)F)cc3Cl)nn2)C1` [Ex 49, (R)-3-Chloro-2-(6-((1-methylpiperidin-3-yl)amino)pyridazin-3-yl)-5-(trifluoromethyl)phenol], the IC50 is more than 100 µM. Under `Cc1ccc(-c2nnc(N[C@@H]3CCCN(C)C3)cc2C(F)(F)F)c(O)c1` [Ex 50, (R)-5-Methyl-2-(6-((1-methylpiperidin-3-yl)amino)-4-(trifluoromethyl)pyridazin-3-yl)phenol] stands more than 100 µM.

The compound `CN1CCC[C@@H](Nc2ccc(-c3c(O)cc(Cl)cc3C(F)(F)F)nn2)C1` [Ex 51, (R)-5-Chloro-2-(6-((1-methylpiperidin-3-yl)amino)pyridazin-3-yl)-3-(trifluoromethyl)phenol] gave an IC50 of more than 100 µM. With `CN1CCC[C@@H](Nc2cc(C(F)(F)F)c(-c3ccc(C(F)(F)F)cc3O)nn2)C1` [Ex 53, (R)-2-(6-((1-Methylpiperidin-3-yl)amino)-4-(trifluoromethyl)pyridazin-3-yl)-5-(trifluoromethyl)phenol], the IC50 was more than 33 µM. `Cc1cc(C(F)(F)F)cc(O)c1-c1ccc(NC2CCC(C(F)(F)F)NC2)nn1` (stereo not drawn) [Ex 62, 3-Methyl-5-(trifluoromethyl)-2-(6-((6-(trifluoromethyl)piperidin-3-yl)amino)pyridazin-3-yl)phenol] had an IC50 of more than 100 µM. The compound `Cc1cc(C(F)(F)F)cc(O)c1-c1cc(C(F)(F)F)c(N[C@@H]2CCCN(C)C2)nn1` [Ex 64, (R)-3-Methyl-2-(6-((1-methylpiperidin-3-yl)amino)-5-(trifluoromethyl)pyridazin-3-yl)-5-(trifluoromethyl)phenol] returned an IC50 of more than 100 µM. `Cc1cc(-c2ccc(C(F)(F)F)cc2O)nnc1N[C@@H]1CCCN(C)C1` [Ex 65, (R)-2-(5-Methyl-6-((1-methylpiperidin-3-yl)amino)pyridazin-3-yl)-5-(trifluoromethyl)phenol]: the 50% inhibitory concentration (IC50) was more than 33 µM.

`CN1CCC[C@@H](Nc2cc(C(F)(F)F)c(-c3ccc(Cl)cc3O)nn2)C1` [Ex 70, (R)-5-Chloro-2-(6-((1-methylpiperidin-3-yl)amino)-4-(trifluoromethyl)pyridazin-3-yl)phenol] registered an IC50 of more than 100 µM. Take `Cc1cc(N[C@@H]2CCCN(C)C2)nnc1-c1ccc(Cl)cc1O` [Ex 71, (R)-5-Chloro-2-(4-methyl-6-((1-methylpiperidin-3-yl)amino)pyridazin-3-yl)phenol]: the IC50 is more than 100 µM.

As for `Cc1cc(C(F)(F)F)cc(O)c1-c1ccc(N[C@@H]2CCCNC2)nn1` [Ex 74, (R)-3-Methyl-2-(6-(piperidin-3-ylamino)pyridazin-3-yl)-5-(trifluoromethyl)phenol], the half-maximal inhibitory concentration (IC50) was more than 100 µM. The compound `Cc1cc(C(F)(F)F)cc(O)c1-c1ccc(N[C@@H]2CCCN(CC(C)(C)O)C2)nn1` [Ex 80, (R)-2-(6-((1-(2-Hydroxy-2-methylpropyl)piperidin-3-yl)amino)pyridazin-3-yl)-3-methyl-5-(trifluoromethyl)phenol] had an IC50 of more than 33 µM.

With `Cc1cc(N[C@@H]2CCCN(C)C2)nnc1-c1ccc(OC(F)(F)F)cc1O` [Ex 82, (R)-2-(4-Methyl-6-((1-methylpiperidin-3-yl)amino)pyridazin-3-yl)-5-(trifluoromethoxy)phenol], the IC50 was more than 100 µM. The same measure for `Cc1cc(C(F)(F)F)cc(O)c1-c1ccc(N[C@@H]2CC[C@H](CO)N(C)C2)nn1` [Ex 87a, 2-(6-(((3R,6R)-6-(Hydroxymethyl)-1-methylpiperidin-3-yl)amino)pyridazin-3-yl)-3-methyl-5-(trifluoromethyl)phenol]: more than 100 µM.
